Where a name gives a salt, the structure may show the parent alone. Read-outs that look alike come from different tables or passages of the source.

In assay [1] the target is purified human Factor XIa (Homo sapiens (Human), UniProt P03951). In words: biochemical. The format is biochemical.
Assay [2] concerns the target purified human plasma kallikrein (Homo sapiens (Human), UniProt P03952). In words: biochemical. The format is biochemical.

purified human plasma kallikrein, sequence (P03952 whole entry, looked up): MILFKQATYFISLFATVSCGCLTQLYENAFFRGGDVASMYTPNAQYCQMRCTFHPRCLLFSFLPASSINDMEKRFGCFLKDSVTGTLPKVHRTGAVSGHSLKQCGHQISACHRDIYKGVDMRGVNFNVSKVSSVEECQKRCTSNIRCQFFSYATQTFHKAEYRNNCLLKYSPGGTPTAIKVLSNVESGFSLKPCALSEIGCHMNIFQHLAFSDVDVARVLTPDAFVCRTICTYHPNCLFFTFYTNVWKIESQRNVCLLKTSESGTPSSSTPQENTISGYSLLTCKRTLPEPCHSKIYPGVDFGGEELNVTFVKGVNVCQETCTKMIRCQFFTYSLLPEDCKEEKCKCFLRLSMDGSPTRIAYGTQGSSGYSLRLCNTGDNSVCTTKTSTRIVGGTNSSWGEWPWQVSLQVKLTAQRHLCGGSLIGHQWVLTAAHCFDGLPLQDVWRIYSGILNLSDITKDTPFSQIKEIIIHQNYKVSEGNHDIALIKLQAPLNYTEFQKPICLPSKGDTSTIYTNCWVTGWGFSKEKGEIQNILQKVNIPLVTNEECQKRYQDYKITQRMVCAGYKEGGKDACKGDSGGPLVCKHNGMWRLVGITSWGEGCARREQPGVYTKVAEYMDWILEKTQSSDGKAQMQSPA
purified human plasma kallikrein, sequence (P03952 whole entry partner, looked up): as the sequence (P03952 whole entry, looked up) above
purified human Factor XIa, sequence (P03951 whole entry, looked up): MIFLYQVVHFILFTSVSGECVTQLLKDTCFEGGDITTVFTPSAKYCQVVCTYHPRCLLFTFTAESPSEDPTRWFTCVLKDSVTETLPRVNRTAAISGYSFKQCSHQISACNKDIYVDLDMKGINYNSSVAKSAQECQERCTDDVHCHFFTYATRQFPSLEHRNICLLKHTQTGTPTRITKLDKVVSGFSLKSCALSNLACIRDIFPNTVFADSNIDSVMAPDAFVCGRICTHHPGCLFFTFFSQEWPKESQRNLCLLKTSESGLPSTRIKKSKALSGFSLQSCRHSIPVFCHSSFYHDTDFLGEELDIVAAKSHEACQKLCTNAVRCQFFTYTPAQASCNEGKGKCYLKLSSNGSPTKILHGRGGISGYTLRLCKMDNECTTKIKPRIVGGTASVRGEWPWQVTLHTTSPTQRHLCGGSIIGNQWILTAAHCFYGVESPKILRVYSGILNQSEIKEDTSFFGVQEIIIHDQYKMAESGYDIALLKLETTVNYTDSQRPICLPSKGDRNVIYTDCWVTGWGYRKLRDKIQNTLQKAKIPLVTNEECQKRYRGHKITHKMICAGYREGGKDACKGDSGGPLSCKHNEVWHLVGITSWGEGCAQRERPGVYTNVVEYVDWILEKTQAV
purified human Factor XIa, sequence (P03951 whole entry partner, looked up): as the sequence (P03951 whole entry, looked up) above

Regarding `COC(=O)Nc1ccc2c(c1)NC(=O)[C@H](C)CCC[C@H](N1CCC(c3c(C)ccc(Cl)c3F)=CC1=O)c1cc-2ccn1` [Example 2, Methyl N-[(10R,14S)-14-[4-(3-chloro-2-fluoro-6-methylphenyl)-6-oxo-1,2,3,6-tetrahydropyridin-1-yl]-10-methyl-9-oxo-8,16-diazatricyclo[13.3.1.0^2,7]nonadeca-1(19),2,4,6,15,17-hexaen-5-yl]carbamate, TFA salt], the Ki in assay [1] (read-out: Factor XIa Ki) worked out at 0.23 nM; in assay [2] (read-out: Plasma Kallikrein Ki) it was 5 nM.

Take `CC(=O)N[C@@H]1C(Nc2ccc3c(c2)NC(=O)[C@H](C)CCC[C@H](N2CCC(c4c(F)ccc(Cl)c4F)=CC2=O)c2cc-3ccn2)O[C@H](CO)[C@@H](O)[C@@H]1O` (stereo partly drawn) [Example 130, N-[(3S,4R,5S,6R)-2-{[(10R,14S)-14-[4-(3-chloro-2,6-difluorophenyl)-6-oxo-1,2,3,6-tetrahydropyridin-1-yl]-10-methyl-9-oxo-8,16-diazatricyclo[13.3.1.0^2,7]nonadeca-1(19),2,4,6,15,17-hexaen-5-yl]amino}-4,5-dihydroxy-6-(hydroxymethyl)oxan-3-yl]acetamide]: the Ki in assay [1] (read-out: Factor XIa Ki) was 8.51 nM; in assay [2] (read-out: Plasma Kallikrein Ki), 26.5 nM.

`C[C@@H]1CCC[C@H](n2ccc(-c3c(F)ccc(Cl)c3F)cc2=O)c2cc(ccn2)-c2c(F)cccc2NC1=O` [Example 200, (10R,14S)-14-[4-(3-chloro-2,6-difluorophenyl)-2-oxo-1,2-dihydropyridin-1-yl]-3-fluoro-10-methyl-8,16-diazatricyclo[13.3.1.0^2,7]nonadeca-1(19),2(7),3,5,15,17-hexaen-9-one, TFA salt]: the Ki in assay [1] (read-out: Factor XIa Ki) was determined as 18.1 nM; in assay [2] (read-out: Plasma Kallikrein Ki), 28.7 nM.

Turning to `COCc1nnc(Nc2ccc3c(c2)NC(=O)[C@H](C)CCC[C@H](N2CCC(c4c(F)ccc(Cl)c4F)=CC2=O)c2cc-3ccn2)o1` [Example 41, (10R,14S)-14-[4-(3-Chloro-2,6-difluorophenyl)-6-oxo-1,2,3,6-tetrahydropyridin-1-yl]-5-{[5-(methoxymethyl)-1,3,4-oxadiazol-2-yl]amino}-10-methyl-8,16-diazatricyclo[13.3.1.0^2,7]nonadeca-1(19),2,4,6,15,17-hexaen-9-one, TFA salt], the Ki in assay [1] (read-out: Factor XIa Ki) worked out at 0.69 nM; in assay [2] (read-out: Plasma Kallikrein Ki) it was 2 nM.

As for `C[C@@H]1CCC[C@H](N2CCC(c3c(F)ccc(Cl)c3F)=CC2=O)c2cc(ccn2)-c2ccc(Nc3cnccn3)cc2NC1=O` [Example 93, (10R,14S)-14-[4-(3-Chloro-2,6-difluorophenyl)-6-oxo-1,2,3,6-tetrahydropyridin-1-yl]-10-methyl-5-[(pyrazin-2-yl)amino]-8,16-diazatricyclo[13.3.1.0^2,7]nonadeca-1(19),2(7),3,5,15,17-hexaen-9-one, 2 TFA salt], the Ki came to 1.4 nM in assay [1] (read-out: Factor XIa Ki) and 3 nM in assay [2] (read-out: Plasma Kallikrein Ki).

Consider `COC(=O)Nc1ccc2c(c1)NC(=O)C(C)(O)CCC[C@H](N1CCC(c3c(F)ccc(Cl)c3F)=CC1=O)c1cc-2ccn1` (single isomer, unassigned) [Example 124, TFA salt], for which the Ki in assay [1] worked out at 346 nM; in assay [2] (Plasma Kallikrein Ki), 483 nM.

With `COC(=O)Nc1ccc2c(c1)NC(=O)[C@H](C)CC(=O)C[C@H](N1CCC(c3c(F)ccc(Cl)c3F)=CC1=O)c1cc-2ccn1` [Example 22, Methyl N-[(10R,14S)-14-[4-(3-chloro-2,6-difluorophenyl)-6-oxo-1,2,3,6-tetrahydropyridin-1-yl]-10-methyl-9,12-dioxo-8,16-diazatricyclo[13.3.1.0^2,7]nonadeca-1(19),2,4,6,15,17-hexaen-5-yl]carbamate, TFA salt], the values for the Ki in assay [1] (read-out: Factor XIa Ki) and in assay [2] (read-out: Plasma Kallikrein Ki) were more than 438 nM and 352 nM, respectively.

For the compound `COC(=O)Nc1ccc2c(c1)NC(=O)[C@H](C)CCC[C@H](N1CCC(c3c(F)cccc3C#N)=CC1=O)c1cc-2ccn1` [Example 4, Methyl N-[(10R,14S)-14-[4-(2-cyano-6-fluorophenyl)-6-oxo-1,2,3,6-tetrahydropyridin-1-yl]-10-methyl-9-oxo-8,16-diazatricyclo[13.3.1.0^2,7]nonadeca-1(19),2,4,6,15,17-hexaen-5-yl]carbamate, TFA salt], the Ki amounted to 2.64 nM in assay [1] (read-out: Factor XIa Ki) and 1 nM in assay [2] (read-out: Plasma Kallikrein Ki).

As to `COC(=O)Nc1ccc2c(c1)NC(=O)[C@H](C)CCC[C@H](N1CCC(c3c(F)ccc(Br)c3F)=CC1=O)c1cc-2ccn1` [Example 190, Methyl N-[(10R,14S)-14-[4-(3-bromo-2,6-difluorophenyl)-6-oxo-1,2,3,6-tetrahydropyridin-1-yl]-10-methyl-9-oxo-8,16-diazatricyclo[13.3.1.0^2,7]nonadeca-1(19),2,4,6,15,17-hexaen-5-yl]carbamate], the inhibition constant (Ki) in assay [1] (read-out: Factor XIa Ki) came to 0.27 nM; in assay [2] (read-out: Plasma Kallikrein Ki), 1.11 nM.

Take `C[C@@H]1CCC[C@H](N2CCC(c3c(-c4cn[nH]c4)ccc(Cl)c3F)=CC2=O)c2cc(ccn2)-c2ccccc2NC1=O` [Example 55, (10R,14S)-14-{4-[3-Chloro-2-fluoro-6-(1H-pyrazol-4-yl)phenyl]-6-oxo-1,2,3,6-tetrahydropyridin-1-yl}-10-methyl-8,16-diazatricyclo[13.3.1.0^2,7]nonadeca-1(19),2,4,6,15,17-hexaen-9-one, TFA salt]: the Ki in assay [1] (read-out: Factor XIa Ki) stood at 2.73 nM; in assay [2] (read-out: Plasma Kallikrein Ki), 19 nM.

Regarding `COC(=O)Nc1ccc2c(c1)NC(=O)[C@H](C)CCC[C@H](N1CCC(C3CCCC(C)C3)=CC1=O)c1cc-2ccn1` (stereo partly drawn) [Example 159, Methyl N-[(10R,14S)-10-methyl-14-[4-(3-methylcyclohexyl)-6-oxo-1,2,3,6-tetrahydropyridin-1-yl]-9-oxo-8,16-diazatricyclo[13.3.1.0^2,7]nonadeca-1(19),2,4,6,15,17-hexaen-5-yl]carbamate, TFA salt (diastereomeric isomers)], the inhibitory constant (Ki) in assay [1] (read-out: Factor XIa Ki) worked out at 63.2 nM; in assay [2] (read-out: Plasma Kallikrein Ki) it was 58.9 nM.

For the compound `COC(=O)Nc1ccc2c(c1)NC(=O)[C@H](C)CCC[C@H](N1CCC(c3c(C#N)ccc4c(N)noc34)=CC1=O)c1cc-2cc(OC)n1` [Example 9, Methyl N-[(10R,14S)-14-[4-(3-amino-6-cyano-1,2-benzoxazol-7-yl)-6-oxo-1,2,3,6-tetrahydropyridin-1-yl]-17-methoxy-10-methyl-9-oxo-8,16-diazatricyclo[13.3.1.0^2,7]nonadeca-1(18),2,4,6,15(19),16-hexaen-5-yl]carbamate, TFA salt], the results for the Ki in assay [1] (read-out: Factor XIa Ki) and in assay [2] (read-out: Plasma Kallikrein Ki) were 33.2 nM and 46 nM, respectively.

For `C[C@@H]1CCC[C@H](N2CCC(c3c(F)ccc(Cl)c3F)=CC2=O)c2cc(ccn2)-c2cc(C#N)ccc2NC1=O` [Example 138, (10R,14S)-14-[4-(3-chloro-2,6-difluorophenyl)-6-oxo-1,2,3,6-tetrahydropyridin-1-yl]-10-methyl-9-oxo-8,16-diazatricyclo[13.3.1.0^2,7]nonadeca-1(19),2(7),3,5,15,17-hexaene-4-carbonitrile], the figures for the Ki in assay [1] (read-out: Factor XIa Ki) and in assay [2] (read-out: Plasma Kallikrein Ki) were 36.2 nM and 31.7 nM, respectively.

Consider `COC(=O)Nc1ccc2c(c1)NC(=O)[C@H](C)CCC[C@H](n1ncc(-c3c(F)ccc(Cl)c3F)cc1=O)c1cc-2ccn1` [Example 11, Methyl N-[(10R,14S)-14-[4-(3-chloro-2,6-difluorophenyl)-6-oxo-1,6-dihydropyridazin-1-yl]-10-methyl-9-oxo-8,16-diazatricyclo[13.3.1.0^2,7]nonadeca-1(19),2(7),3,5,15,17-hexaen-5-yl]carbamate, TFA salt], for which the values for the Ki in assay [1] (read-out: Factor XIa Ki) and in assay [2] (read-out: Plasma Kallikrein Ki) were 6.77 nM and 14 nM, respectively.

As for `COC(=O)Nc1ccc2c(c1)NC(=O)[C@H](C)CCC[C@H](N1CC(C)C(c3c(F)ccc(Cl)c3F)=CC1=O)c1cc-2ccn1` (single isomer, unassigned; isomer 1) [Example 177], the Ki in assay [1] came to 0.8 nM; in assay [2] (Plasma Kallikrein Ki), 4.02 nM.

In the case of `CC1CCC[C@H](N2CCC(c3c(Br)ccc(Cl)c3F)=CC2=O)c2cc(ccn2)-c2ccc(-c3nnc[nH]3)cc2NC1=O` (stereo partly drawn) [Example 38, (14S)-14-[4-(6-Bromo-3-chloro-2-fluorophenyl)-6-oxo-1,2,3,6-tetrahydropyridin-1-yl]-10-methyl-5-(4H-1,2,4-triazol-3-yl)-8,16-diazatricyclo[13.3.1.0^2,7]nonadeca-1(19),2(7),3,5,15,17-hexaen-9-one, TFA salt], the figures for the Ki in assay [1] (read-out: Factor XIa Ki) and in assay [2] (read-out: Plasma Kallikrein Ki) were 2.77 nM and 6 nM, respectively.

Turning to `COC(=O)Nc1ccc2c(c1)NC(=O)[C@H](C)CCC[C@H](N1CCC(c3c(F)ccc(Cl)c3F)=CC1=O)c1nc-2c(Cl)[nH]1` [Example 135, Methyl N-[(10R,14S)-17-chloro-14-[4-(3-chloro-2,6-difluorophenyl)-6-oxo-1,2,3,6-tetrahydropyridin-1-yl]-10-methyl-9-oxo-8,16,18-triazatricyclo[13.2.1.0^2,7]octadeca-1(17),2,4,6,15(18)-pentaen-5-yl]carbamate, TFA salt], the Ki in assay [1] (read-out: Factor XIa Ki) came to 0.05 nM; in assay [2] (read-out: Plasma Kallikrein Ki), 0.56 nM.

On to `COC(=O)Nc1ccc2c(c1)NC(=O)[C@H](C)CCC[C@H](N1CCC(c3ccnc(N)c3)=CC1=O)c1cc-2ccn1` [Example 154, Methyl N-[(10R,14S)-14-[4-(2-aminopyridin-4-yl)-6-oxo-1,2,3,6-tetrahydropyridin-1-yl]-10-methyl-9-oxo-8,16-diazatricyclo[13.3.1.0^2,7]nonadeca-1(19),2,4,6,15,17-hexaen-5-yl]carbamate, 2 TFA salt], for which the Ki in assay [1] (read-out: Factor XIa Ki) is 23.6 nM; in assay [2] (read-out: Plasma Kallikrein Ki) it was 118 nM.

Consider `COC(=O)Nc1ccc2c(c1)NC(=O)C(C)(O)CCC[C@H](N1CCC(c3c(F)ccc(Cl)c3F)=CC1=O)c1cc-2ccn1` (stereo partly drawn) [Example 123, Methyl N-[(14S)-14-[4-(3-chloro-2,6-difluorophenyl)-6-oxo-1,2,3,6-tetrahydropyridin-1-yl]-10-hydroxy-10-methyl-9-oxo-8,16-diazatricyclo[13.3.1.0^2,7]nonadeca-1(19),2,4,6,15,17-hexaen-5-yl]carbamate, TFA salt], for which the Ki in assay [1] (read-out: Factor XIa Ki) turned out to be 20.1 nM; in assay [2] (read-out: Plasma Kallikrein Ki) it was 26.1 nM.

In the case of `COC(=O)Nc1ccc2c(c1)NC(=O)[C@H](C)CCC[C@H](N1CCC(C3CCCCN3C)=CC1=O)c1cc-2ccn1` (stereo partly drawn) [Example 158, Methyl N-[(10R,14S)-10-methyl-14-[4-(1-methylpiperidin-2-yl)-6-oxo-1,2,3,6-tetrahydropyridin-1-yl]-9-oxo-8,16-diazatricyclo[13.3.1.0^2,7]nonadeca-1(19),2,4,6,15,17-hexaen-5-yl]carbamate, 2 TFA salt], the Ki in assay [1] (read-out: Factor XIa Ki) is more than 404 nM; in assay [2] (read-out: Plasma Kallikrein Ki), 10900 nM.

By Ki is commonly meant the dissociation constant of the complex between target and ligand, obtained from inhibition or displacement.

For the origin of these results see patent US9409908B2 (priority 2012, dated 2016).
